Measured values from ChEMBL document CHEMBL5620427, “Recent advances in Fragment-based strategies against tuberculosis” (Eur J Med Chem, 2023).

Test system: Mycobacterium tuberculosis variant bovis
Assay: Antibacterial activity against Mycobacterium bovis BCG ATCC 35734 assessed as bacterial growth inhibition measured after 3 weeks by resazurin dye based assay
Assay type: functional
Conditions: BCG ATCC 35734, 504 h

Compound	MIC99 [µM]
NS(=O)(=O)c1cc(Cl)cc(Cl)c1	< 56
CCOC(=O)c1cc(Cl)c(O)c(Cl)c1	< 53
